In patent publication US20210052705A1, “METHOD OF DRUG […] FOR PTH, PTHrP AND RELATED PEPTIDES” (Radius Health, Inc., priority 2011, published 2021):
Where two headings read alike, the source gives them in different places.

What was measured:
clinical = conditions: female, human, in vivo, LS Mean; for AUC(0-inf): AUC0-inf; for AUC(0-t): AUC0-t
[1] = male, Sprague Dawley, rat, in vivo
Method: Certain drug coated microarrays were tested in vivo in a preclinical model using Sprague Dawley rats. […] Male Sprague Dawley rats with jugular vein catheters were purchased from Charles River Laboratories. Once received, they were acclimated for at least 24 hours prior to dosing.
Typically, one hour prior to dosing microneedle arrays were removed from refrigeration (approximately 4° C.) and allowed to equilibrate to room temperature.
The standard procedure for skin preparation and microneedle array application is as follows.
One day prior to dosing, an area just above the hind legs on the dorsal surface of the rat was shaved using electric clippers. Nair® hair removal lotion (Church & Dwight Co.) was then applied to the area for 5 to 8 minutes to remove remaining fur stubble. The Nair® lotion was then thoroughly removed using a damp cloth. The next day a microneedle array was applied using a spring-loaded applicator. The microneedle array was left in contact with skin for five minutes, before being removed. During array application and contact time the rats were manually restrained.
Blood was collected at three time points from each animal out of a possible total of five time destinations (5 minutes, 15 minutes, 30 minutes, 45 minutes, 90 minutes) from each rat on a staggered schedule so that all time points would be represented with extra sampling at 15 minutes without overdrawing from any animal. Approximately 1 mL of blood was collected via the catheter from the jugular vein using a syringe and needle from rats for their first two blood draws. For the terminal blood collection, animals were euthanized via CO2 chamber and approximately 1 mL of blood was collected via cardiac puncture. The blood was immediately transferred to a serum separator tube that contained 25 μL of a 2.5 mg/ml aprotinin (Sigma) solution.
Blood was collected from each rat 5, 10, 15, 30 and 45 minutes post dose. Approximately 600 μL of blood was collected via the catheter from the jugular vein using a syringe and needle from rats for their first four blood draws. For the terminal blood collection, animals were euthanized via CO2 chamber and approximately 600 μL of blood was collected via cardiac puncture. The blood was immediately transferred to a serum separator tube that contained 12 μL of a 2.5 mg/ml aprotinin (Sigma) solution.
Blood was collected three or four times from each rat at the time points depicted in the tables below. Approximately 1 mL of blood was collected via the catheter from the jugular vein using a syringe and needle from rats for any non-terminal time points. For the terminal blood collection, animals were euthanized via CO2 chamber and approximately 1 mL of blood was collected via cardiac puncture. The blood was immediately transferred to a serum separator tube that contained 20 μL of a 2.5 mg/ml aprotinin (Sigma) solution.
Blood was collected from each rat 5, 15, 30, 45, 90 and 120 minutes post dose. Approximately 500 μL of blood was collected via the catheter from the jugular vein using a syringe and needle from rats for their first five blood draws. For the terminal blood collection, animals were euthanized via CO2 chamber and approximately 500 μL of blood was collected via cardiac puncture.

[2] = set-up: AUC5-90, Mean: unit not given beside the values; conditions: Sprague-Dawley, rat, in vivo, 13.6 ug
[3] = female, human, in vivo

CC[C@H](C)[C@H](NC(=O)[C@H](CO)NC(=O)[C@H](CCCCN)NC(=O)CNC(=O)[C@H](CCCCN)NC(=O)[C@H](CC(=O)O)NC(=O)[C@H](Cc1cnc[nH]1)NC(=O)[C@H](CC(C)C)NC(=O)[C@H](CC(C)C)NC(=O)[C@H](CCC(N)=O)NC(=O)[C@H](Cc1cnc[nH]1)NC(=O)[C@H](CCC(=O)O)NC(=O)[C@H](CO)NC(=O)[C@@H](NC(=O)[C@H](C)N)C(C)C)C(=O)N[C@@H](CCC(N)=O)C(=O)N[C@@H](CC(=O)O)C(=O)N[C@@H](CC(C)C)C(=O)N[C@@H](CCCNC(=N)N)C(=O)N[C@@H](CCCNC(=N)N)C(=O)N[C@@H](CCCNC(=N)N)C(=O)N[C@@H](CCC(=O)O)C(=O)N[C@@H](CC(C)C)C(=O)N[C@@H](CC(C)C)C(=O)N[C@@H](CCC(=O)O)C(=O)N[C@@H](CCCCN)C(=O)N[C@@H](CC(C)C)C(=O)N[C@@H](CC(C)C)C(=O)NC(C)(C)C(=O)N[C@@H](CCCCN)C(=O)N[C@@H](CC(C)C)C(=O)N[C@@H](Cc1cnc[nH]1)C(=O)N[C@H](C(=O)N[C@@H](C)C(N)=O)[C@@H](C)O [Peptide]
AUC(0-inf) (clinical; 100 ug): 0.0885 ng·h/mL
AUC(0-t) (clinical; 100 ug): 0.112 ng·h/mL
Cmax (clinical; 100 ug): 0.000366 µg/mL
AUC(0-inf) (clinical; 150 ug): 0.119 ng·h/mL
AUC(0-t) (clinical; 150 ug): 0.107 ng·h/mL
Cmax (clinical; 150 ug): 0.000315 µg/mL
AUC(0-inf) (clinical; 200 ug): 0.11 ng·h/mL
AUC(0-t) (clinical; 200 ug): 0.0975 ng·h/mL
Cmax (clinical; 200 ug): 0.000337 µg/mL
AUC(0-t) ([1]; 20 ug/kg): 166 ng·min/mL
Cmax ([1]; 20 ug/kg): 0.00715 µg/mL
Cmax (20 μg/kg Dose) ([1]; 20 ug/kg): 0.00715 µg/mL
T1/2 ([1]; 20 ug/kg): 14 min
Tmax ([1]; 20 ug/kg): 15 min
Concentrations of Peptide in Serum ([1]; 26.2 ug, 5 min): 0.04529 µg/mL
Concentrations of Peptide in Serum ([1]; 26.2 ug, 0.25 h): 0.05972 µg/mL
Concentrations of Peptide in Serum ([1]; 26.2 ug, 0.5 h): 0.02015 µg/mL
Concentrations of Peptide in Serum ([1]; 26.2 ug, 0.75 h): 0.01163 µg/mL
T1/2 ([1]; 27 ug): 26 min
Tmax ([1]; 27 ug): 15 min
Concentrations of Peptide in Serum ([1]; 27 ug, 5 min): 0.02134 µg/mL
Concentrations of Peptide in Serum ([1]; 27 ug, 0.25 h): 0.03108 µg/mL
Concentrations of Peptide in Serum ([1]; 27 ug, 0.5 h): 0.01243 µg/mL
Concentrations of Peptide in Serum ([1]; 27 ug, 0.75 h): 0.00699 µg/mL
Concentrations of Peptide in Serum ([1]; 32 ug, 5 min): 0.03776 µg/mL
Concentrations of Peptide in Serum ([1]; 32 ug, 10 min): 0.02994 µg/mL
Concentrations of Peptide in Serum ([1]; 32 ug, 0.25 h): 0.03748 µg/mL
Concentrations of Peptide in Serum ([1]; 32 ug, 0.5 h): 0.01599 µg/mL
Concentrations of Peptide in Serum ([1]; 32 ug, 0.75 h): 0.00839 µg/mL
AUC(0-t) ([1]; 141.9 ug): 5199 ng·min/mL
Cmax ([1]; 141.9 ug): 0.15374 µg/mL
Tmax ([1]; 141.9 ug): 15 min
% F ([1]; 386.5 ug): 24%
AUC(0-t) ([1]; 386.5 ug): 6899 ng·min/mL
Cmax ([1]; 386.5 ug): 0.17902 µg/mL
T1/2 ([1]; 386.5 ug): 16 min
Tmax ([1]; 386.5 ug): 15 min
AUC5-90, Mean [2]: 282
Cmax, Mean [2]: 0.0123 µg/mL
Tmax, Mean [2]: 9 min
Concentration in Serum at 5 min, Mean ([2]; 5 min): 0.0118 µg/mL
Concentration in Serum at 15 min, Mean ([2]; 0.25 h): 0.0105 µg/mL
Concentration in Serum at 30 min, Mean ([2]; 0.5 h): 0.0071 µg/mL
AUC0-inf, LS Mean ([3]; 150 ug): 0.15742 ng·h/mL
AUC0-t, LS Mean ([3]; 150 ug): 0.14285 ng·h/mL
Cmax, LS Mean ([3]; 150 ug): 0.00031197 µg/mL
AUC0-inf, LS Mean ([3]; 200 ug): 0.19016 ng·h/mL
AUC0-t, LS Mean ([3]; 200 ug): 0.16679 ng·h/mL
Cmax, LS Mean ([3]; 200 ug): 0.00048945 µg/mL
